Among the data in ChEMBL document CHEMBL5291721, “A preclinical secondary pharmacology resource illuminates target-adverse drug reaction associations of marketed drugs” (Nat Commun, 2023) are AC50 values, retold here.

The target in assay [1] is Kappa-type opioid receptor (Homo sapiens, UniProt P41145).
The target of assay [2] is Gamma-aminobutyric acid receptor subunit alpha-1 (Rattus norvegicus, UniProt P62813).
Assay [3] deals with Adenosine receptor A2a (Homo sapiens, UniProt P29274).
The target in assay [4] is Motilin receptor (Homo sapiens, UniProt O43193).
In assay [5] the target is T1, Cannabinoid receptor 1 (Homo sapiens, UniProt P21554). It is filed as functional, cell-based.
Assay [6] deals with T2, Neuropeptide Y receptor type 1 (Homo sapiens, UniProt P25929).
T2 sequence (P25929 whole entry): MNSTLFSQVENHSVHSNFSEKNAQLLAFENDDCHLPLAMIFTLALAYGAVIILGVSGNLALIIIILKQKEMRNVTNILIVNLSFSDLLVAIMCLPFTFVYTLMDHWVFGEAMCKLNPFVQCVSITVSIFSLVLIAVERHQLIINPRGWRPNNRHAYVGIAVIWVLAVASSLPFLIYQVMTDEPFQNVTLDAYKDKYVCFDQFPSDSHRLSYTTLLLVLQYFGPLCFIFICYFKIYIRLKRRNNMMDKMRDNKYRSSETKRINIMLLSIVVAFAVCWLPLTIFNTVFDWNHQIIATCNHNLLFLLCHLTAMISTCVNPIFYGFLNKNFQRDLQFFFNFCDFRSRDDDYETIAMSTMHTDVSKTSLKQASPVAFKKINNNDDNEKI

Assay [7] has as its target Vasopressin V2 receptor (Homo sapiens, UniProt P30518).
Assay [8] deals with T3, Equilibrative nucleoside transporter 1 (Homo sapiens, UniProt Q99808).
T3 sequence (Q99808 whole entry): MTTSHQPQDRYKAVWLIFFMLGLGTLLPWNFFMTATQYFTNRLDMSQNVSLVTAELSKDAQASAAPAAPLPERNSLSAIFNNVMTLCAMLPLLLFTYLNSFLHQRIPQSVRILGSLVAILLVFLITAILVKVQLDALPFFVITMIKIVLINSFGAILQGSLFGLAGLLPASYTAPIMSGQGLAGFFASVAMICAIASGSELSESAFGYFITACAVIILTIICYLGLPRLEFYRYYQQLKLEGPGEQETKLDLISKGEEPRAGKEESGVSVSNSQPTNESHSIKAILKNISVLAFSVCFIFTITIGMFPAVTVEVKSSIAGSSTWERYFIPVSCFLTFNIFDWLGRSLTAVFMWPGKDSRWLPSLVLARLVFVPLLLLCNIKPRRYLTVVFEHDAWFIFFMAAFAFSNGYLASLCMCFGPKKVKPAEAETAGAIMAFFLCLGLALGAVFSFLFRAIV

The target in assay [9] is Beta-1 adrenergic receptor (Homo sapiens, UniProt P08588). The assay is classed as functional.
The target of assay [10] is T4, 5-hydroxytryptamine receptor 1A (Homo sapiens, UniProt P08908).
T4 sequence (P08908 whole entry): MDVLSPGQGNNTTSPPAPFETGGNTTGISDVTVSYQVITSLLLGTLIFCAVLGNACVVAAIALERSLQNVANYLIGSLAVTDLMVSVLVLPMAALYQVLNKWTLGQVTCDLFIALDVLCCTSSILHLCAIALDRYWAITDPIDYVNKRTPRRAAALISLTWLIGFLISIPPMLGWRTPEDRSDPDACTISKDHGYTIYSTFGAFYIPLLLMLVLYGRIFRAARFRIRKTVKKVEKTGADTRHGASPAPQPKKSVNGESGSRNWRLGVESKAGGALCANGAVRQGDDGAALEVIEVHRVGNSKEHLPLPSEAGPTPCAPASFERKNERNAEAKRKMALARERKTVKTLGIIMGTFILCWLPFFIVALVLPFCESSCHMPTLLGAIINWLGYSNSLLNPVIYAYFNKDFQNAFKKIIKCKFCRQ
It is filed as functional, cell-based.

For assay [11], the target named is T5, Alpha-1A adrenergic receptor (Homo sapiens, UniProt P35348).
T5 sequence (P35348 whole entry): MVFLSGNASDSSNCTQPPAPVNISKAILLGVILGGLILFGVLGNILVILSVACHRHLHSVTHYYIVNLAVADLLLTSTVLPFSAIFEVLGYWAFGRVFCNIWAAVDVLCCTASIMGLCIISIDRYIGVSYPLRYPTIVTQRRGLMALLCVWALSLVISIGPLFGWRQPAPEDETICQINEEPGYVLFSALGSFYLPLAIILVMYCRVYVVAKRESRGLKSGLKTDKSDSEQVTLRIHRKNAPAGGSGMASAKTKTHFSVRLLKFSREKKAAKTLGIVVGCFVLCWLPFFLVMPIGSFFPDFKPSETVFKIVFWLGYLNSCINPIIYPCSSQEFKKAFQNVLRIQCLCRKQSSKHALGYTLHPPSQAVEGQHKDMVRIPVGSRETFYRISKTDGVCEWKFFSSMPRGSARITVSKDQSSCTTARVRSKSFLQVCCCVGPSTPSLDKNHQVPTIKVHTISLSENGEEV
The assay is classed as functional, cell-based.

Assay [12] addresses T1, Cannabinoid receptor 1. The assay is classed as functional, cell-based. The source holds these as a separate data set.
Assay [13] has as its target Voltage-gated inwardly rectifying potassium channel KCNH2 (Homo sapiens, UniProt Q12809). The assay is classed as functional. The note with it: read-out: AC50.
The target of assay [14] is Glutamate receptor ionotropic, NMDA 1 (Rattus norvegicus, UniProt P35439).
In assay [15] the target is T6, Alpha-2A adrenergic receptor (Homo sapiens, UniProt P08913).
T6 sequence (P08913 whole entry): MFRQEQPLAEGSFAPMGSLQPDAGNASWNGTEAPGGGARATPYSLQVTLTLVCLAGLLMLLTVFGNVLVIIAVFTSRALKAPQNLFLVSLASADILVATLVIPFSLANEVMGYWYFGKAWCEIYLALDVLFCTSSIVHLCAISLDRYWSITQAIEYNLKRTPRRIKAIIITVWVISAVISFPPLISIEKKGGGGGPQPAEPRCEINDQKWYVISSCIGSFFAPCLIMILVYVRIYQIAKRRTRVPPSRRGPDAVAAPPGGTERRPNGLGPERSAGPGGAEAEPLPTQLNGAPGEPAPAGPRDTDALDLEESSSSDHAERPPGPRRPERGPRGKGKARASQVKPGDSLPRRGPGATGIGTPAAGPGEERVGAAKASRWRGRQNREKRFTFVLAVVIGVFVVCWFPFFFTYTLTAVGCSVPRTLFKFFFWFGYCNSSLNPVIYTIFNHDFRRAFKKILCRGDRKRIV
The assay is classed as functional, cell-based.

Where a SMILES comes first, the peptide text is derived from it.
Also: assay procedure not described here.

Chain of Gamma-aminobutyric acid receptor subunit alpha-1 (P62813 whole entry): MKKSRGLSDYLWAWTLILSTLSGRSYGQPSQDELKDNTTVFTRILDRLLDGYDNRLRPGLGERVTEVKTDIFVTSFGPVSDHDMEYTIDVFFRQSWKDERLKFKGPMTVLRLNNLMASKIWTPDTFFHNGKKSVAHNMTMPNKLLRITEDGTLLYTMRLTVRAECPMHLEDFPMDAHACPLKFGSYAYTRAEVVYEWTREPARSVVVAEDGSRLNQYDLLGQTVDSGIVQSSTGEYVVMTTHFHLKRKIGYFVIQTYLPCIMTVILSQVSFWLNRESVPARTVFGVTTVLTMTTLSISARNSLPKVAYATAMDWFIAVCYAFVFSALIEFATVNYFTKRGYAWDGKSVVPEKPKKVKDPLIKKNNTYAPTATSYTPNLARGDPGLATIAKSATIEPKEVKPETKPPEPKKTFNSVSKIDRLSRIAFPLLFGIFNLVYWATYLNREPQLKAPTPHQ
Chain of Vasopressin V2 receptor (P30518 whole entry): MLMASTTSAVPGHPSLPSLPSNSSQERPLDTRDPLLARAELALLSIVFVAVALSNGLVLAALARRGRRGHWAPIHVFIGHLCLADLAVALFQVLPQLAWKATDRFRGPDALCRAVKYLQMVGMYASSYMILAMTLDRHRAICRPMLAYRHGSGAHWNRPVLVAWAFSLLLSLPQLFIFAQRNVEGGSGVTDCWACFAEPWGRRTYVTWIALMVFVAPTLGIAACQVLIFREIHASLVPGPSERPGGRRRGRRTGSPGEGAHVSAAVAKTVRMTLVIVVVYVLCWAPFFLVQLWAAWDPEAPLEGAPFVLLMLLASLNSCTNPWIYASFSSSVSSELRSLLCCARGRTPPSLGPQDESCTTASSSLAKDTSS
T1 sequence (P21554 whole entry): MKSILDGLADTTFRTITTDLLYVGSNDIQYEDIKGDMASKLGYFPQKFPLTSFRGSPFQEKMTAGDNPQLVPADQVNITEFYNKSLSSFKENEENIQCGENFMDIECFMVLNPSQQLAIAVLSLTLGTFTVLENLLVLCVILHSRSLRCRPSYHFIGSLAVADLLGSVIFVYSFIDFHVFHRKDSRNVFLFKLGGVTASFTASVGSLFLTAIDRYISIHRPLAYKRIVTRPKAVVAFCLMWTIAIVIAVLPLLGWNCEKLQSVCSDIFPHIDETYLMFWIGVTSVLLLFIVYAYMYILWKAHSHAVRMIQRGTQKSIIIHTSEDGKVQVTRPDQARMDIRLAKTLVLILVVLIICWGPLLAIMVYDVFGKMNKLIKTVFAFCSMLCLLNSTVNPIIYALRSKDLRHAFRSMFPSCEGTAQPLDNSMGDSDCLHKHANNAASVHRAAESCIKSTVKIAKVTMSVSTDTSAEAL
Chain of Motilin receptor (O43193 whole entry): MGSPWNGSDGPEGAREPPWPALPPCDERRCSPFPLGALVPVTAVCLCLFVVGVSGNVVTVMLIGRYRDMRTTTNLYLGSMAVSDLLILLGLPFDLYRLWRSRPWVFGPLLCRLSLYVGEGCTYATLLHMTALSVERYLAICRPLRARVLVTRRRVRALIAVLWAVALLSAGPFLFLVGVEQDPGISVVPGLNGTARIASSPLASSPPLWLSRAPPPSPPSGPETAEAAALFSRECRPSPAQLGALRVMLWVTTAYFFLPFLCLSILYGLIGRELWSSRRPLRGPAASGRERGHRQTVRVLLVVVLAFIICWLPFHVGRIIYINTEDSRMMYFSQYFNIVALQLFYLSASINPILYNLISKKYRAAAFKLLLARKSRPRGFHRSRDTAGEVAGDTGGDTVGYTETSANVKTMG
Chain of Adenosine receptor A2a (P29274 whole entry): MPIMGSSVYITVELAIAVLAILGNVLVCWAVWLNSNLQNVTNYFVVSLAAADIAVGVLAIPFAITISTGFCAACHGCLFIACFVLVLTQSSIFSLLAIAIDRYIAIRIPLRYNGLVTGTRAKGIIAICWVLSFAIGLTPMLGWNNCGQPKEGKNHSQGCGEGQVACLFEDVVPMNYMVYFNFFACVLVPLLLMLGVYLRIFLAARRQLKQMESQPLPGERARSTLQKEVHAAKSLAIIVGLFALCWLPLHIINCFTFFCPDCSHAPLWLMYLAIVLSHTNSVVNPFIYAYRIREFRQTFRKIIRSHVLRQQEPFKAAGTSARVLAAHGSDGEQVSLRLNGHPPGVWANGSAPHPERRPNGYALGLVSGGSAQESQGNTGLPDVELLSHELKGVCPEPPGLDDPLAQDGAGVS
Chain of Voltage-gated inwardly rectifying potassium channel KCNH2 (Q12809 whole entry): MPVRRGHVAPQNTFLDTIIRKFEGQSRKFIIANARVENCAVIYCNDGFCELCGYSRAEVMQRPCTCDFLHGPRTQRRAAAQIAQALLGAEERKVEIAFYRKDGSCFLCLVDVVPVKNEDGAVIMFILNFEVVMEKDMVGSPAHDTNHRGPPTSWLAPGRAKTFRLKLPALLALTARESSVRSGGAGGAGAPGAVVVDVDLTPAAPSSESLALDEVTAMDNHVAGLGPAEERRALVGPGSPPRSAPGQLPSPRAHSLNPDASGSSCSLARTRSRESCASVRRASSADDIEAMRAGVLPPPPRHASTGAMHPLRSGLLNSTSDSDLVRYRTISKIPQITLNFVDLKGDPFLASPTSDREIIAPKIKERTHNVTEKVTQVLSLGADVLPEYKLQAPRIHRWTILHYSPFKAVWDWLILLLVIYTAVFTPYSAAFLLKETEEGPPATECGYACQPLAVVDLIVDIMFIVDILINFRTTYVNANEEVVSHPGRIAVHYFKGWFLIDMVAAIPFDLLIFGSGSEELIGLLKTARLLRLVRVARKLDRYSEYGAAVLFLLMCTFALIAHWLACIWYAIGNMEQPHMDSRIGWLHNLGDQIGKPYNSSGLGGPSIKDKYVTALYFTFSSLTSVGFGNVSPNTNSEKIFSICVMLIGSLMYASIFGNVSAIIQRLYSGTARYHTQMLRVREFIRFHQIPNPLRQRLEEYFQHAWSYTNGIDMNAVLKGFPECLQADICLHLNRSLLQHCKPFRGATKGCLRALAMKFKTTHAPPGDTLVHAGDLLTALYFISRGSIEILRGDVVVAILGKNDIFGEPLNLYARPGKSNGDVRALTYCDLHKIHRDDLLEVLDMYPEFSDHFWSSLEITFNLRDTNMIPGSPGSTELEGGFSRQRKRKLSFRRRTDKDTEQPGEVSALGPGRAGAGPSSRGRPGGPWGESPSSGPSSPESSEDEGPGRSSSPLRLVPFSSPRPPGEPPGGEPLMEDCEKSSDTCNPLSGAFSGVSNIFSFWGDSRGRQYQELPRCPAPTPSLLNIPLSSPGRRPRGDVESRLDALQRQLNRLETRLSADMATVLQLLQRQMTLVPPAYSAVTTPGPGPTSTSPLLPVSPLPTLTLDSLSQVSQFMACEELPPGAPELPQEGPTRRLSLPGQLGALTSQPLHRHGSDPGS
Chain of Kappa-type opioid receptor (P41145 whole entry): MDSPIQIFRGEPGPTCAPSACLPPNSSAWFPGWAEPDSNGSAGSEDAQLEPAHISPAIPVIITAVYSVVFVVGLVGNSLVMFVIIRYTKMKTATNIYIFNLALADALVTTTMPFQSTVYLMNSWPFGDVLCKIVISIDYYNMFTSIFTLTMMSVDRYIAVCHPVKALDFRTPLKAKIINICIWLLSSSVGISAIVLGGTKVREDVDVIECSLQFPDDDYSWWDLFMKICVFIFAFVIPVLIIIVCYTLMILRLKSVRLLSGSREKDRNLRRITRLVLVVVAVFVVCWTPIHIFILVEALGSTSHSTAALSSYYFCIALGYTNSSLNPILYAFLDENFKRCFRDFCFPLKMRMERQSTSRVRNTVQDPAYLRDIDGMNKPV
Chain of Beta-1 adrenergic receptor (P08588 whole entry): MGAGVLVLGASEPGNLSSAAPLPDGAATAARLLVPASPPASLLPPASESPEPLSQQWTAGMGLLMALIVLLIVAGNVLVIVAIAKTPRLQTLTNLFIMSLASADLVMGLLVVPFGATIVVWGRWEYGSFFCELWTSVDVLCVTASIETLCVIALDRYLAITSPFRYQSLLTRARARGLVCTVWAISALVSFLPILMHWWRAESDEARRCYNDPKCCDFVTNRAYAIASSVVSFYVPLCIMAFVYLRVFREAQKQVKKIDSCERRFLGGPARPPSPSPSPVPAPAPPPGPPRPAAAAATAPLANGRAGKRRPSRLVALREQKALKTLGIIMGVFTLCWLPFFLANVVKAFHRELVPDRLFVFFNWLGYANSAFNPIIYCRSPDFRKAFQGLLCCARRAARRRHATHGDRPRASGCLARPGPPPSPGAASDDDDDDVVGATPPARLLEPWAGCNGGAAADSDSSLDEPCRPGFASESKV

As for `C[C@H](N)C(=O)N[C@@H](CCC(N)=O)C(=O)O` [ALANYL GLUTAMINE] (H-Ala-Gln-OH), the AC50 in [1], in [2], in assay [3], in assay [4], in assay [5] and in [6] was greater than 30 µM each time. The AC50 in assay [7], in assay [8], in [9], in assay [10], in assay [11] and in assay [12] was greater than 30 µM each time. The AC50 in [13], in assay [14] and in [15] was greater than 30 µM in each case.
In the case of `COc1cc(N)cn[n+]1-c1ccccc1` [AMEZINIUM METILSULFATE], the AC50 in [1], in [2], in [3], in [4], in assay [5] and in assay [6] was greater than 30 µM each time. Besides, the AC50 in assay [7], in assay [8], in assay [9], in [10], in assay [11] and in assay [12] was greater than 30 µM each time. For the same molecule, the AC50 in assay [13] was 3.8 µM; in [14], greater than 30 µM; in [15], greater than 30 µM.
As to `COc1ccc(-n2nc(C(N)=O)c3c2C(=O)N(c2ccc(N4CCCCC4=O)cc2)CC3)cc1` [APIXABAN], the AC50 in assay [1], in [2], in assay [3], in assay [4], in assay [5] and in assay [6] was greater than 30 µM each time. In addition, the AC50 is greater than 30 µM in assay [7]; 26 µM in assay [8]; greater than 30 µM in assay [9]; greater than 30 µM in [10]; greater than 30 µM in assay [11]; greater than 30 µM in [12]. Also, the AC50 in assay [13], in [14] and in assay [15] was greater than 30 µM throughout.
Take `CNCCc1ccccn1` [BETAHISTINE]: the AC50 in assay [1], in [2], in assay [3], in [4], in assay [5] and in assay [6] was greater than 30 µM in each case. The AC50 in assay [7], in assay [8], in assay [10], in [11], in [12] and in assay [13] was greater than 30 µM throughout. Besides, the AC50 in [14] and in assay [15] was greater than 30 µM throughout.
On to `CCCCOC(=O)c1ccc(N)cc1` [BUTAMBEN], for which the AC50 in assay [1], in assay [2], in [3], in [4], in [5] and in assay [6] was greater than 30 µM each time. Besides, the AC50 in [7], in assay [8], in assay [9], in assay [10], in assay [11] and in assay [12] was greater than 30 µM in each case. In addition, the AC50 in assay [13], in assay [14] and in assay [15] was greater than 30 µM each time.
As to `CO/N=C(\C(=O)N[C@@H]1C(=O)N2C(C(=O)O)=C(CSc3nc(C)c(CC(=O)O)s3)CS[C@H]12)c1csc(N)n1` [CEFODIZIME], the concentration at half-maximal activity (AC50) in assay [1], in assay [2], in assay [3], in assay [4], in [5] and in [6] was greater than 30 µM in each case. Further, the AC50 in assay [7], in assay [8], in [9], in [10], in [11] and in assay [12] was greater than 30 µM throughout. For the same molecule, the AC50 in [13], in [14] and in [15] was greater than 30 µM each time.
On to `CO/N=C(\C(=O)N[C@@H]1C(=O)N2C(C(=O)[O-])=C(C[n+]3ccc(N)n3CCO)CS[C@H]12)c1csc(N)n1` [CEFOSELIS], for which the AC50 in [1], in assay [2], in assay [3], in assay [4], in [5] and in [6] was greater than 30 µM in each case. Moreover, the half-maximal activity concentration (AC50) in assay [7], in assay [8], in assay [9], in [10], in [11] and in [12] was greater than 30 µM in each case. The AC50 in assay [13], in assay [14] and in [15] was greater than 30 µM in each case.
For the molecule `CCCO[C@H]1[C@@H]([C@@H](COCc2ccc(Cl)cc2)OCc2ccc(Cl)cc2)OC(OCC)[C@@H]1O` (some centres undefined) [CLOBENOSIDE], the AC50 in [1] is 27 µM; in [2], greater than 30 µM; in [3] it was greater than 30 µM; in assay [4] it was greater than 30 µM; in assay [5] it was greater than 30 µM; in assay [6], greater than 30 µM. Also, the AC50 in assay [7], in [8], in assay [9], in assay [10], in [11] and in assay [12] was greater than 30 µM each time. The concentration at half-maximal activity (AC50) in [13], in [14] and in assay [15] was greater than 30 µM in each case.
